Results as given in the supplement of paper PMC10307832.

How the values were obtained:
Assay in all cases: relative viability (nuclei count vs DMSO), 5 days (fraction); higher = more cells survive
[1] = compound: N=C1NC(=O)/C(=C/c2ccc(O)cc2)S1 [Mirin] + COc1cc2c(Oc3ccc(NC(=O)C4(C(=O)Nc5ccc(F)cc5)CC4)cc3F)ccnc2cc1OCCCN1CCOCC1 [Foretinib] (partner 0.25 µM)
In short: (§1)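 Each reported value is a median over duplicate plates. It expresses relative viability: treated-well nuclei count divided by vehicle-well nuclei count. Lung cancer cell lines in 1536-well plates were dosed by pin tool a day after seeding, alone with one drug or with a fixed anchor-drug dose plus five library-drug doses (not always all listed) in √10 steps, and nuclei were counted after 5 days.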

[2] = compound: CCC1=CN=CN=C1N2CCN(CC2)CC3=NC4=C(N3)C=C(C=C4)C(F)(F)F + C[C@]1(O)C[C@@H](c2nc(-c3ccc4ccc(-c5ccccc5)nc4c3)c3c(N)nccn32)C1 [Linsitinib] (partner 1 µM)
In short: as §1

[3] = compound: CCn1c(-c2nonc2N)nc2cnc(Oc3cccc(NC(=O)c4ccc(OCCN5CCOCC5)cc4)c3)cc21 + CC1(C)CCC(c2ccc(Cl)cc2)=C(CN2CCN(c3ccc(C(=O)NS(=O)(=O)c4ccc(N[C@H](CCN5CCOCC5)CSc5ccccc5)c(S(=O)(=O)C(F)(F)F)c4)cc3)CC2)C1 [Navitoclax] (partner 0.5 µM)
In short: as §1

[4] = compound: N=C1NC(=O)/C(=C/c2ccc(O)cc2)S1 [Mirin] + Cc1nc(NC(=O)N2CCC[C@H]2C(N)=O)sc1-c1ccnc(C(C)(C)C(F)(F)F)c1 [Alpelisib] (partner 2 µM)
In short: as §1

Cell Line	relative viability ([1]; first compound 0.25 µM)	relative viability ([1]; first compound 0.7906 µM)	relative viability ([1]; first compound 2.5 µM)	relative viability ([1]; first compound 7.906 µM)	relative viability ([1]; first compound 25 µM)	relative viability ([2]; first compound 0.04 µM)	relative viability ([2]; first compound 0.1265 µM)	relative viability ([2]; first compound 0.4 µM)	relative viability ([2]; first compound 4 µM)	relative viability ([3]; first compound 0.04 µM)	relative viability ([3]; first compound 0.1265 µM)	relative viability ([3]; first compound 1.265 µM)	relative viability ([3]; first compound 4 µM)	relative viability ([4]; first compound 0.25 µM)	relative viability ([4]; first compound 2.5 µM)	relative viability ([4]; first compound 7.906 µM)	relative viability ([4]; first compound 25 µM)	relative viability ([2]; first compound 1.265 µM)	relative viability ([3]; first compound 0.4 µM)	relative viability ([4]; first compound 0.7906 µM)
SW 900	1.02	1.19	1.1	0.866	0.827	–	–	–	–	–	–	–	–	–	–	–	–	–	–	–
NCI-H1944	0.824	0.95	0.888	0.814	0.557	1.36	1.21	1.08	0.99	1.03	1.03	1.02	0.97	0.834	0.813	0.718	0.52	–	–	–
NCI-H838	1.05	1.08	1.08	1	0.852	0.991	0.912	0.941	1.05	0.982	0.686	0.354	0.294	0.966	0.961	1.03	0.965	0.916	0.569	1
NCI-H1650	1.22	1.11	0.968	1.43	0.782	–	–	–	–	1.79	1.31	1.08	1.05	–	–	–	–	–	1.34	–
HCC-827	1.03	1.08	1.06	1.06	1.23	0.951	0.915	0.955	0.926	1.09	0.98	1.02	0.841	1.02	0.958	1.01	1.12	0.923	0.982	1.02
HCC-366	0.855	–	0.888	0.997	0.869	0.907	0.595	0.525	0.661	1.25	1.14	0.178	0.0486	0.34	0.545	0.296	0.253	–	1.04	0.37
HARA	0.817	–	0.845	0.902	0.708	0.915	0.832	0.919	0.831	1.19	1.02	1.18	1.14	0.889	0.858	0.805	0.612	0.733	1.09	0.968
NCI-H441	1.02	1.16	0.995	1.09	1.05	0.526	0.553	0.444	0.497	0.745	0.653	0.323	0.508	0.537	0.631	0.536	0.507	0.489	0.481	1.11
LXF-289	1.04	1.03	0.939	1.09	1.01	0.983	0.957	0.983	0.954	1.05	1.05	0.991	1.06	1.03	1.06	1.13	1.03	0.976	1.09	1.05
